This note sets out measurements from US10618901B2 (GlaxoSmithKline Intellectual Property Development Limited, priority 2014, dated 2020).

This experiment has as its target T1, 6HIS-Tev-LRRK2 (1326-2527) (Homo sapiens, UniProt Q5S007).
T1 construct: A LRRK2 cDNA encoding residues 1326-2527 was received from Dundee University; made in house; host or cells: Spodoptera frugiperda Sf9 (baculovirus, pFB-HTb)
T1 sequence (Q5S007 1326-2527): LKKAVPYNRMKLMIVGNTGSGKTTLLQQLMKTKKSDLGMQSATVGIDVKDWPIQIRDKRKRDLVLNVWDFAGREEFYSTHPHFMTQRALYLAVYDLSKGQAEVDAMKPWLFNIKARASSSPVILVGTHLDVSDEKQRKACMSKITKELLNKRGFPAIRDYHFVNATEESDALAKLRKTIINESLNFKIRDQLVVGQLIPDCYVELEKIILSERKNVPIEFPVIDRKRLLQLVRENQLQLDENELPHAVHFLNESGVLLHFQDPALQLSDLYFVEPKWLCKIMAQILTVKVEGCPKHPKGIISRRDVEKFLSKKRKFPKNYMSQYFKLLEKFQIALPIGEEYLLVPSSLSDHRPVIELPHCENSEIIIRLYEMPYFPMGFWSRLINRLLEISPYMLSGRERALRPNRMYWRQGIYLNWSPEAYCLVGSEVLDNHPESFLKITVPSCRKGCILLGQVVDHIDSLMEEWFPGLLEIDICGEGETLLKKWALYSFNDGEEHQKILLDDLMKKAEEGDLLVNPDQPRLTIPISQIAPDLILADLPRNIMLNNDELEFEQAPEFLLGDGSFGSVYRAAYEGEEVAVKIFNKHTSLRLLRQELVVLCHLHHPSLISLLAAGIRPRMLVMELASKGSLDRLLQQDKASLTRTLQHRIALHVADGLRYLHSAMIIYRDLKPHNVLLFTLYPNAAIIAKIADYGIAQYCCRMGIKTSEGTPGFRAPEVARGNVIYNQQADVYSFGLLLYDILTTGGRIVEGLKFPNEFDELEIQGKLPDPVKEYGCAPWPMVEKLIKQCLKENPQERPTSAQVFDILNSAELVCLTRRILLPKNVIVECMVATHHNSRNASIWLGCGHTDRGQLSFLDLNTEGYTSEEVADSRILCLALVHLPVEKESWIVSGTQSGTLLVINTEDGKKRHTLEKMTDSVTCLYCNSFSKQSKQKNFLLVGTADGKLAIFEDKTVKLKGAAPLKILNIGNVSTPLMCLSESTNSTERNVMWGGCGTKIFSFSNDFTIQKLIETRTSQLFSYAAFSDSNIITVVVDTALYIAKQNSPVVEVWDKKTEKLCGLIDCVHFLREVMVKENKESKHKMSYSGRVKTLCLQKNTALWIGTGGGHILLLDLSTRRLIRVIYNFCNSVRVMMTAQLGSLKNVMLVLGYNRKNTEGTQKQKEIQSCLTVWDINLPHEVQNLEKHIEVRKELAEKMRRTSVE
Put plainly: Recombinant LRRK2 enzyme peptide substrate TR-FRET assay. It is filed as biochemical. Particulars: 60 nM LRRK2 enzyme; 10 uM ATP; read-out: pIC50 in the recombinant LRRK2 enzyme peptide substrate TR-FRET assay (converted). As for the experimental part:
A LRRK2 cDNA encoding residues 1326-2527 was received from Dundee University (described in M. Jaleel et al., 2007, Biochem J, 405: 407-417). This gene fragment was subcloned into pFB-HTb (Invitrogen) using BamHI and NotI restriction sites. The LRRK2 plasmid was recombined into the baculovirus genome according to the BAC-to-BAC protocol described by Invitrogen. Transfection into Spodoptera frugiperda (Sf9) insect cells was performed using Cellfectin (Invitrogen), according to the manufacturer's protocol to generate P1 and P2 baculovirus stocks.
Sf9 cells were grown in HyClone SFX (Thermo Scientific) growth media at 27° C., 80 rpm in shake flask until of a sufficient volume to inoculate a bioreactor. The cells were grown in a 20 liter working volume Wave bioreactor (GE Healthcare) at 27° C., 50% dissolved oxygen and an agitation rate 22 rocks per minute, 10 degree rock angle, 200 ml/min air with a cell concentration of approximately 6×e6 cells/ml. The cells were infected with P2 Baculovirus at a multiplicity of infection (MOI) of 3. The cultivation was continued for a 48 hour expression phase. The infected cells were removed from the growth media by centrifugation at 2500 g using a Sorvall RC 3C Plus centrifuge at 2500 g for 20 minutes. The cell pellet was immediately frozen and subsequently supplied for purification.
A 260 g pellet was allowed to thaw in a water bath at 27° C. with 800 ml lysis buffer/buffer A (50 mm Tris-HCl pH 8.5, 300 mM NaCl, 1 mm DTT, 10% glycerol, 1 ml/L calbiochem complete protease inhibitor cocktail and benzonase (50 ul/800 ml)) before being dounce homogenised on ice using 20 strokes per 100 ml. The suspension was packed in ice and sonicated at 50% amplitude for 3 min 10 sec on/off using a ¾″ probe. The suspension was then centrifuged at 100,000 g for 90 min, at 4° C.
The lysate (700 ml) was decanted from the insoluble pellet and contacted for 3 h at 4 C with 10 ml His bind Ni NTA resin by end over end mixing. The resin was recovered by centrifugation, 3000 g, 5 min at 4 C, and packed in an XK16 column. The column was then washed with 10 column volumes buffer A, 10 column volumes buffer B (buffer A+1M NaCl) and 10 column volumes buffer C (buffer A+20 mM imidazole). The column was then eluted with 15 column volumes buffer D (buffer A+300 mM imidazole) collecting 2 ml fractions. All washes and elution were conducted at 4 ml/min.
Fractions identified by SDS-PAGE as containing protein of interest were pooled and loaded directly onto a 320 ml SEC Superdex 200 pg column that was pre-equilibrated with buffer E (50 mM Tris-HCl pH 8.5, 300 mM NaCl, 10% glycerol, 1 mM DTT). The column was loaded and eluted with 1.2 column volumes buffer E at 2 ml/min collecting 2 ml fractions. Fractions identified by SDS-PAGE as containing protein of interest were tested for activity.
Production of Biotin-Loner LRRKtide
The peptide (biotin-[…]-OH) was assembled at a […] scale using FMOC solid phase peptide synthesis on an ACT 357 MPS automated peptide synthesizer. The resulting crude peptide was cleaved from the resin using a 95:2.5:2.5 mix of trifluoroacetic acid: triisopropylsilane: water. The crude cleaved peptide was purified by reverse phase HPLC, eluting with a 5-35% gradient of 0.1% trifluoroacetic acid/acetonitrile in 0.1% trifluoroacetic acid/water.
Recombinant LRRK2 Enzyme Peptide Substrate TR-FRET Assay
This assay for LRRK2 inhibition is based on the detection of phosphorylation of the peptide ‘longer LRRKtide’ (biotin-[…]-OH) using a time resolved-fluorescence resonance energy transfer (TR-FRET) assay. It uses an antibody labelled europium chelate donor, W-1024 (Eu) and Streptavidin-Surelight APC acceptor (APC). When in close proximity, the excitation of Eu at 330 nm leads to energy transfer to APC with emission of light at 665 nm,
Assay Protocol • 1. A 10 mM test compound was dissolved in 100% DMSO and serially diluted 1 in 4. […]
`CCOc1nc(Nc2cnn(C3CCCC3(C)O)c2C)nc2[nH]ccc12` (single isomer, unassigned) [Example E78, trans-2-(4-((4-ethoxy-7H-pyrrolo-[2,3-d]pyrimidin-2-yl)amino)-5-methyl-1H-pyrazol-1-yl)-1-methylcyclopentanol]: the IC50 is no more than 100 nM.

Consider `CCOc1nc(Nc2cn(C3CCN(C)CC3)nc2C)nc2[nH]ccc12` [Example E19, 4-ethoxy-N-(3-methyl-1-(1-methylpiperidin-4-yl)-1H-pyrazol-4-yl)-7H-pyrrolo-[2,3-d]-pyrimidin-2-amine], for which the IC50 is no more than 100 nM. Under `Cc1c(Nc2nc(OCC3CC3)c3cn[nH]c3n2)cnn1CC(C)(C)O` [Example E24, 1-(4-((4-(cyclopropylmethoxy)-1H-pyrazolo-[3,4-d]-pyrimidin-6-yl)amino)-5-methyl-1H-pyrazol-1-yl)-2-methylpropan-2-ol] stands no more than 100 nM.
